Experiment in all cases: growth of human tumour cells (NCI), 48 h
In assay [1] the test system is CAKI-1 renal.
Assay [2] has as its system HCT-15 colon.
In assay [3] the test system is CCRF-CEM leukemia.
In assay [4] the test system is NCI-H460 lung.
In assay [5] the test system is A549 NSCLC.
The subject of assay [6] is MDA-N.
For assay [7], the system named is HL-60(TB) leukemia.
Assay [8] has as its system SK-OV-3 ovarian.
In assay [9] the test system is SK-MEL-5 melanoma.
Assay [10] has as its system COLO 205 colon.
Assay [11] has as its system 786-0 renal.
Assay [12] has as its system A498 renal.
Assay [13] deals with HCC-2998 colon.
Assay [14] concerns EKVX NSCLC.
The subject of assay [15] is SF-539 CNS.
Assay [16] concerns DU-145 prostate.
The test system of assay [17] is TK-10 renal.

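1) Cells in 96-well plates. 2) Compound, 48 h, 5 concentrations. 3) Linear interpolation between surrounding doses. 4) Unreached endpoint = highest concentration. Abbreviation: GI50, concentration required for 50% inhibition of growth. TGI: total growth inhibition.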

Consider `N#CC(C#N)=c1c2ccccc2c(=C(C#N)C#N)c2ccccc12`, for which the TGI is 28.6 µM in [1]; 65 µM in [2]; 50.9 µM in assay [3]; 63.6 µM in assay [4]; greater than 100 µM in assay [5]; 41.5 µM in [6]. Further, the TGI was 59.2 µM in assay [7]; 44.4 µM in [8]; 31 µM in [9]; 37.5 µM in assay [10]; 30.6 µM in assay [11]; 54.9 µM in assay [12].
With `COc1ccc(CNc2nc(NCc3ccc(OC)cc3)nc(NC3CCCC3)n2)cc1`, the TGI in assay [1] was greater than 84.1 µM; in assay [13], 38.6 µM; in assay [14], greater than 100 µM; in assay [2], greater than 20.6 µM; in assay [15], 11.4 µM; in assay [3], greater than 100 µM. Moreover, the TGI in assay [4] is greater than 33.8 µM; in assay [5] it was greater than 67.7 µM; in assay [16], greater than 40.7 µM; in assay [7], greater than 28.3 µM; in [8], greater than 100 µM; in assay [9] it was 14 µM. Also, the TGI in [10] was greater than 25.1 µM; in assay [11], greater than 68.5 µM; in assay [12] it was greater than 100 µM; in assay [17] it was greater than 26.1 µM. Besides, the GI50 in assay [13] is 3.67 µM; in assay [12], 62.1 µM.
With `COC(=O)c1ccc(C)cc1CC1Cc2cccc(C)c2C1=O` (configuration not stated), the TGI in assay [1] was greater than 100 µM; in assay [13], 29.3 µM; in assay [14] it was 13.9 µM; in assay [2], 12.5 µM; in assay [15], 17.6 µM; in [3] it was 51.3 µM. The TGI is 22.7 µM in assay [4]; greater than 100 µM in assay [5]; greater than 100 µM in assay [16]; 3.86 µM in [6]; 92 µM in assay [8]; 11.4 µM in assay [9]. For the same compound, the TGI in [10] was 30.7 µM; in assay [11] it was greater than 100 µM; in assay [17], 48.6 µM.
Consider `COc1ccc(-c2csc(Cc3nc4c(Br)cc(Br)cc4c(=O)n3-c3ccc(OC)cc3)n2)cc1`, for which the TGI in [1], in assay [13], in assay [14], in assay [2], in assay [3] and in assay [4] was greater than 100 µM in each case. The TGI in assay [5] was greater than 100 µM; in assay [16] it was greater than 100 µM; in assay [6], greater than 100 µM; in assay [8], greater than 100 µM; in assay [9], 89.3 µM; in [10], greater than 100 µM. The TGI in assay [11], in assay [12] and in assay [17] was greater than 100 µM throughout.
Regarding `COc1ccc(N=Nc2ccc3oc(=O)c(C(=O)Nc4ccccc4C)cc3c2)cc1`, the TGI in assay [1], in [13], in assay [14], in assay [2], in [15] and in assay [4] was greater than 10 µM in each case. The TGI in assay [16], in assay [6], in assay [8], in assay [9], in assay [10] and in [11] was greater than 10 µM in each case. Moreover, the TGI in assay [12] and in [17] was greater than 10 µM each time.
As for `CN(/N=C/c1ccccn1)C1=NCCCN1`, the TGI in assay [1], in [13], in assay [14], in assay [2], in assay [15] and in assay [3] was greater than 100 µM in each case. For the same compound, the TGI in assay [4], in assay [5], in assay [6], in [7], in assay [8] and in [9] was greater than 100 µM each time. In addition, the TGI in assay [10], in [11], in assay [12] and in [17] was greater than 100 µM each time.
Turning to `CO[C@@]12C[C@@H](C)[C@]34O[C@H]3C[C@]3(C)O[C@]43CC1=C(C)C(=O)O2`, the TGI in [1], in [13], in assay [14], in assay [2], in assay [15] and in assay [4] was greater than 100 µM throughout. The TGI in assay [5], in assay [16], in [6], in assay [8], in [9] and in [10] was greater than 100 µM throughout. Also, the TGI in assay [11], in [12] and in assay [17] was greater than 100 µM in each case.
Take `O=C(CC(C(=O)c1ccsc1)c1ccsc1)c1ccsc1` (configuration not stated): the TGI in [1], in assay [13], in assay [14], in [2], in [15] and in assay [3] was greater than 100 µM in each case. Further, the TGI in assay [4], in assay [5], in assay [16], in [7], in assay [8] and in assay [9] was greater than 100 µM each time. Moreover, the TGI in [10], in [11], in assay [12] and in assay [17] was greater than 100 µM in each case.
With `O=C1OCC(c2ccc(Cl)cc2)=C1Cl`, the TGI in assay [1] is 88.4 µM; in [13] it was 47.8 µM; in [14], greater than 100 µM; in [2] it was greater than 100 µM; in assay [15], greater than 100 µM; in [3], 75.6 µM. For the same compound, the TGI in assay [4] was 46.2 µM; in assay [5] it was greater than 100 µM; in [16], greater than 100 µM; in [7] it was 48.5 µM; in [8], greater than 100 µM; in [9], 31.5 µM. Moreover, the TGI is 70.4 µM in [10], 40.6 µM in assay [11], greater than 100 µM in assay [12] and 60.6 µM in [17].

The values above are taken from PubChem BioAssay (NCI).
